# Measured values taken from patent US9556205B2, “Fungicide N-[(trisubstitutedsilyl)methyl]-carboxamide derivatives” (BAYER INTELLECTUAL PROPERTY GMBH, priority 2010, dated 2017).
# Experiments:
# Alternaria solani = test: In vivo preventive test on Alternaria solani (tomato); conditions: 500 ppm of active ingredient, evaluated 7 days after inoculation
# Experimental: Solvent: 49 parts by weight of N,N-dimethylformamide Emulsifier: 1 part by weight of Alkylarylpolyglycolether To produce a suitable preparation of active compound, 1 part by weight of active compound is mixed with the stated amounts of solvent and emulsifier, and the concentrate is diluted with water to the desired concentration. To test for preventive activity, young plants are sprayed with the preparation of active compound at the stated rate of application. One day after this treatment, the plants are inoculated with an aqueous spore suspension of Alternaria solani. […] Then the plants are placed in an incubation cabinet at approximately 20° C. and a relative atmospheric humidity of 96%.
# Pyrenophora teres = test: In vivo preventive test on Pyrenophora teres (barley), Example F; conditions: 500 ppm of active ingredient, evaluated 7-9 days after inoculation
# Experimental: Solvent: 49 parts by weight of N,N-dimethylformamide Emulsifier: 1 part by weight of alkylaryl polyglycol ether To produce a suitable preparation of active compound, 1 part by weight of active compound is mixed with the stated amounts of solvent and emulsifier, and the concentrate is diluted with water to the desired concentration. To test for preventive activity, young plants are sprayed with the preparation of active compound at the stated rate of application. One day after this treatment, the plants are inoculated with an aqueous spore suspension of Pyrenophora teres. […] Then the plants are placed in a greenhouse at a temperature of approximately 20° C. and a relative atmospheric humidity of approximately 80%.
# [1] = system: Aflatoxins production by Aspergillus parasiticus; assay type: cell-based
# Aspergillus parasiticus = assay type: cell-based; conditions: 7 days at 20° C., OD620nm
# [2] = log P by HPLC on reversed-phase column (C18), EEC Directive 79/831 Annex V.A8; assay type: physicochemical; conditions: 40° C., 0.1% aqueous formic acid and acetonitrile, linear gradient 10% to 90% acetonitrile
# Experimental: In table 1, the log P values were determined in accordance with EEC Directive 79/831 Annex V.A8 by HPLC (High Performance Liquid Chromatography) on a reversed-phase column (C18), using the method described below:
# Temperature: 40° C.; Mobile phases: 0.1% aqueous formic acid and acetonitrile; linear gradient from 10% acetonitrile to 90% acetonitrile.
# Calibration was carried out using unbranched alkan-2-ones (comprising 3 to 16 carbon atoms) with known log P values (determination of the log P values by the retention times using linear interpolation between two successive alkanones). lambda-max-values were determined using UV-spectra from 200 nm to 400 nm and the peak values of the chromatographic signals.
Compound,Efficacy (Alternaria solani),Efficacy (Pyrenophora teres),% Inhibition of Aflatoxin at 50 μM [1],% Inhibition of fungal growth at 50 μM (Aspergillus parasiticus),logP [2],chromatographic logP [2]
Cn1nc(C(F)F)c(C(=O)N(C[Si](C)(C)Cc2ccc(Cl)cc2Cl)C2CC2)c1F [Example 70],100%,100%,100%,100%,5.03,
Cn1nc(C(F)F)c(C(=O)NC[Si](C)(C)c2cccc(Cl)c2)c1F [Example 26],100%,100%,100%,100%,3.55,
Cc1cc(C(=O)N(C[Si](C)(C)c2ccccc2Cl)C2CC2)c(C)o1 [Example 22],95%,80%,,,4.74,
Cn1cc(C(=O)NC[Si](C)(C)c2cc(Cl)cc(Cl)c2)c(C(F)F)c1 [Example 45],,,,,4.11,
Cc1cc(C(=O)N(C[Si](C)(C)Cc2cccc(Cl)c2)C2CC2)c(C)o1 [Example 63],70%,,,,5.11,
Cn1nc(C(F)F)c(C(=S)N(C[Si](C)(C)Cc2ccccc2)C2CC2)c1F [Example 57],95%,,,,4.67,
Cc1cc(C(=O)NC[Si](C)(C)c2ccc(Cl)cc2Cl)c(C)o1 [Example 33],,,,,4.46,
Cn1nc(C(F)F)c(C(=S)N(C[Si](C)(C)Cc2ccccc2Cl)C2CC2)c1F [Example 62],80%,100%,,,5.00,
Cn1nc(C(F)F)c(C(=O)N(C[Si](C)(C)Cc2cccc(Cl)c2)C2CC2)c1F [Example 66],100%,100%,100%,100%,4.44,
Cc1cc(C(=O)NC[Si](C)(C)c2cc(Cl)cc(Cl)c2)c(C)o1 [Example 44],,,,,4.54,
Cn1nc(C(F)F)c(C(=O)NC[Si](C)(C)c2cc(Cl)cc(Cl)c2)c1Cl [Example 46],95%,100%,99%,84%,4.27,
Cn1nc(C(F)F)c(C(=S)N(C[Si](C)(C)Cc2ccc(Cl)cc2Cl)C2CC2)c1F [Example 71],95%,100%,,,5.57,
Cc1cc(C(=O)NC[Si](C)(C)c2cccc(Cl)c2)c(C)o1 [Example 23],,,,,3.92,
C[Si](C)(CN(C(=O)c1ccsc1I)C1CC1)c1ccc2ccccc2c1 [Example 78],,,,,5.17,
Cn1nc(C(F)F)c(C(=O)NC[Si](C)(C)c2ccc(Cl)cc2Cl)c1Cl [Example 35],90%,,,,4.25,
Cc1cc(C(=O)N(C[Si](C)(C)Cc2ccc(Cl)cc2Cl)C2CC2)c(C)o1 [Example 73],,,,,5.78,
Cn1nc(C(F)F)c(C(=O)N(C[Si](C)(C)c2ccc3ccccc3c2)C2CC2)c1Cl [Example 77],,,,,4.51,
Cn1cc(C(=O)N(C[Si](C)(C)Cc2ccc(Cl)cc2Cl)C2CC2)c(C(F)F)c1 [Example 68],70%,,,,5.19,
Cn1nc(C(F)F)c(C(=O)NC[Si](C)(C)c2ccccc2)c1Cl [Example 2],95%,100%,87%,71%,3.31,
Cn1cc(C(=O)NC[Si](C)(C)c2cccc(Cl)c2)c(C(F)F)c1 [Example 24],,,,,3.58,
Cn1nc(C(F)F)c(C(=O)N(C[Si](C)(C)Cc2ccccc2Cl)C2CC2)c1Cl [Example 60],95%,95%,100%,84%,4.56,
Cc1cc(C(=O)N(C[Si](C)(C)Cc2ccccc2Cl)C2CC2)c(C)o1 [Example 58],,,,,5.08,
Cn1nc(C(F)F)c(C(=O)N(C[Si](C)(C)Cc2cccc(Cl)c2)C2CC2)c1Cl [Example 65],95%,100%,82%,72%,4.59,
"Cc1nn(C)c(F)c1C(=O)N(C[Si](C)(C)c1ccccc1)C1CC1 [Example 8, N-cyclopropyl-N-{[dimethyl(phenyl)silyl]methyl}-5-fluoro-1,3-dimethyl-1H-pyrazole-4-carboxamide]",,,,,,3.19

Compound,Efficacy (Alternaria solani),Efficacy (Pyrenophora teres),% Inhibition of Aflatoxin at 50 μM [1],% Inhibition of fungal growth at 50 μM (Aspergillus parasiticus),logP [2],chromatographic logP [2]
N-cyclohexyl-N-{[dimethyl(phenyl)silyl]methyl}-2-furamide [Example 5],,,,,3.73,
Cn1nc(C(F)F)c(C(=O)N(C[Si](C)(C)Cc2cc(Cl)cc(Cl)c2)C2CC2)c1F [Example 72],89%,,100%,100%,4.98,
Cc1cc(C(=O)NC[Si](C)(C)c2ccccc2Cl)c(C)o1 [Example 13],,,,,3.85,
Cc1cc(C(=O)N(C[Si](C)(C)c2cc(Cl)cc(Cl)c2)C2CC2)c(C)o1 [Example 50],100%,95%,,,5.51,
Cc1nc(C(F)F)c(C(=O)N(C[Si](C)(C)c2ccc(Cl)cc2Cl)C2CC2)s1 [Example 43],100%,100%,,,5.00,
Cc1cc(C(=O)N(C[Si](C)(C)Cc2ccccc2)C2CC2)c(C)o1 [Example 56],,,,,4.67,
Cn1nc(C(F)F)c(C(=O)NC[Si](C)(C)c2ccc(Cl)cc2Cl)c1F [Example 36],100%,100%,100%,84%,4.06,
Cn1nc(C(F)F)c(C(=O)N(C[Si](C)(C)c2ccsc2)C2CC2)c1F [Example 76],94%,100%,100%,100%,3.55,
Cn1nc(C(F)F)c(C(=S)NC[Si](C)(C)c2ccccc2Cl)c1F [Example 16],70%,,,,4.11,
Cn1nc(C(F)F)c(C(=O)NC[Si](C)(C)c2cccc(Cl)c2)c1Cl [Example 25],100%,100%,99%,84%,3.71,
Cc1cc(C(=O)NC[Si](C)(C)c2ccccc2)c(C)o1 [Example 3],,,,,3.48,
Cn1nc(C(F)F)c(C(=O)N(C[Si](C)(C)Cc2ccc(Cl)cc2Cl)C2CC2)c1Cl [Example 69],100%,100%,100%,85%,5.19,
Cn1cc(C(=O)NC[Si](C)(C)c2ccc(Cl)cc2Cl)c(C(F)F)c1 [Example 34],,,,,4.06,
Cn1cc(C(=O)N(C[Si](C)(C)Cc2ccccc2Cl)C2CC2)c(C(F)F)c1 [Example 59],,70%,,,4.56,
Cc1nc(C(F)F)c(C(=O)N(C[Si](C)(C)c2cc(Cl)cc(Cl)c2)C2CC2)s1 [Example 53],80%,95%,,,4.92,
Cn1nc(C(F)F)c(C(=O)N(C[Si](C)(C)c2ccc3ccccc3c2)C2CC2)c1F [Example 74],100%,100%,100%,100%,4.36,
Cn1nc(C(F)F)c(C(=O)NC[Si](C)(C)c2cc(Cl)cc(Cl)c2)c1F [Example 47],100%,95%,100%,100%,4.08,
Cc1cc(C(=O)N(C[Si](C)(C)c2cccc(Cl)c2)C2CC2)c(C)o1 [Example 29],94%,95%,,,4.78,
Cn1nc(C(F)F)c(C(=O)NC[Si](C)(C)c2ccccc2Cl)c1Cl [Example 14],,,,,3.69,
Cn1nc(C(F)F)c(C(=S)NC[Si](C)(C)c2ccc(Cl)cc2Cl)c1F [Example 37],,,,,4.74,
Cn1nc(C(F)F)c(C(=O)N(C[Si](C)(C)Cc2ccccc2)C2CC2)c1Cl [Example 54],95%,100%,,,4.20,
Cn1cc(C(=O)N(C[Si](C)(C)Cc2cccc(Cl)c2)C2CC2)c(C(F)F)c1 [Example 64],,,,,4.62,
Cn1nc(C(F)F)c(C(=O)N(C[Si](C)(C)Cc2cc(Cl)cc(Cl)c2)C2CC2)c1Cl [Example 67],78%,,100%,86%,5.14,
